The values that follow come from US20050222274A1 (priority 2002, published 2005).

Data set [1] deals with release of APPs produced by α-secretase. The data set is described as follows: release of APPs in the culture medium of neuroblastoma cell line SH-SY5Y. The class given is cell-based. The following applies: 10 μM; APPs secreted in culture medium of SH-SY5Y; controls = 100. The procedure: It is in fact known that proteolytic cleavage of Alzheimer Precursor Protein (APP) is mediated both by β- and γ-secretase, inducing an increased production of amyloid peptide Ab1-42 (which also plays a central role in the appearance of Alzheimer's disease), and […], giving raise to soluble APPs which have no pathogenic activity (Eslr W. P., Wolfe M. S., Science, 293, 1449-54, 2001).
The effect of the compounds of the invention on the release of APPs produced by α-secretase was evaluated in the culture medium of a neuroblastoma cell line (SH-SY5Y) according to the procedure described by Galbete J. L. et al. in Biochem J. 348, 307-313, 2000.

For data set [2] the following is noted: usual extraction and storage conditions; cited from earlier work.

8-chlorooctahydrohyperforin had an APPs % in data set [1] of 855%. Consider `CC(C)=CCC[C@]1(C)[C@@H](CC=C(C)C)C[C@]2(CC=C(C)C)C(=O)C(Cl)(CC=C(C)C)C(=O)[C@@]1(C(=O)C(C)C)C2=O` (stereo partly shown) [Chlorohyperforin, 8-chlorohyperforin], for which, in data set [1], the APPs % came to 627%.

As to `CC(C)=CCC[C@]1(C)[C@@H](CC=C(C)C)C[C@@]2(CC=C(C)C)C(=O)[C@]1(C(=O)C(C)C)C(=O)C(CC=C(C)C)=C2O` [Hyperforin], the “stability (in words)” value in data set [2] is reported as “poorly stable”. In data set [1], the APPs % is recorded as 296%.
